According to article PMC12418703, “Avenanthramides and avenacosides as biomarkers of oat intake: a pharmacokinetic study of solid and liquid oat consumption under single and repeated dose conditions” (Nutrition Journal, 2025):

Experiments:
[1] = set-up: method as in PMID 39491249; settings: in the presence of starch; cited from earlier work
[2] = system: Feacalibacterium prausnitzii; assay: Association of F. prausnitzii relative abundance at baseline with Cmax and AUC strata (logistic regression); set-up: species or system humans; settings: liquid, solid, or combined; single dose phase I
Protocol: DNA was extracted from approximately 35 mg of each of the 451 fecal samples using the NucleoSpin Soil kit (Macherey-Nagel, 740780.250 M), following the manufacturer’s instructions. DNA yield was quantified using the Qubit 1X dsDNA Broad Range assay kit (Thermo Fisher Scientific, Q33266). For metagenomic shotgun sequencing, libraries were prepared with the MGIEasy Fast FS DNA Library Prep Set (MGI Tech Co., Ltd., 940-000030-00, Werheim, Germany), using 400 ng of DNA per sample. The library preparation process included DNA shearing for 12.5 min, followed by end repair, A-tailing, and magnetic bead-based cleanup. Adapter ligation and cleanup were then performed, followed by PCR amplification and magnetic bead-based size selection of the final library product. Library quality was assessed using the Qubit 1X dsDNA HS Assay Kit (Thermo Fisher Scientific, Q33231) and the Agilent High Sensitivity D1000 Assay Kit (Agilent Technologies, 5067–5584 and 5067–5585, Santa Clara, CA, USA). Pooled libraries were circularized, barcoded, and used as templates for DNA nanoball preparation. The nanoballs were then analyzed on the DNBSEQ-T7 platform (MGI Tech Co., Ltd.) using the DNBSEQ-T7RS High-throughput Sequencing Set (FCL PE150), according to the manufacturer’s guidelines.
Raw metagenomic reads underwent quality control to remove low-quality sequences, adapters, and contaminants using Fastp (version 0.23.2, default parameters). High-quality reads were filtered to exclude human reads (GRCh38_noalt_as) using Bowtie2 [38] (version 2.5.3). The quality-filtered reads were then aligned to the taxonomy database using MetaPhlAn (version 4.0.6, default parameters) to generate relative abundance profiles. For inclusion in the analysis, a species was required to be present in at least three samples.
For the seven metabolites AVE A, AVE B, AVA 2c, AVA 2f, AVA 2fd, AVA 2p, AVA 2pd analysed at phase I after the single dose of oat products, Cmax and area under the curve (AUC) were stratified based on less than the median or more or equal to the […]. Thereafter, for each metabolite, it was investigated whether the relative abundance of F. prausnitzii at baseline could predict the strata since this bacterium has previously been reported to be responsible for production of their dihydro-metabolites. Logistic regression with a binomial distribution and a logistic link function was used to separately analyze the liquid and solid products. When analyzing liquid and solid products together, a generalized linear mixed model with a binomial distribution and a logistic link function was used, with identity included as a random factor.

Row | association between F. prausnitzii abundance at baseline and Cmax and AUC [2] | Structure (SMILES) | change of bioaccessibility [1]
1 | no significant associations | O=C(/C=C/c1ccc(O)c(O)c1)Nc1ccc(O)cc1C(=O)O [AVA 2c] | increased
2 | no significant associations | COc1cc(/C=C/C(=O)Nc2ccc(O)cc2C(=O)O)ccc1O [AVA 2f] | decreased
3 | no significant associations | O=C(/C=C/c1ccc(O)cc1)Nc1ccc(O)cc1C(=O)O [AVA 2p] | decreased
